Data from patent US9517996B2, “Purification of polycarboxylic acids” (Verdezyne, Inc., priority 2014, dated 2016).

Assay: physchem
Details: thermodynamic from solid
Experimental: Each polycarboxylic acid was added to the water or acetic acid solution while mixing and kept at the appropriate temperature until the solution became supersaturated as visually determined at least 20 minutes after addition of the polycarboxylic acid.

solubility (20 °C, organic solvent or mixture): < 200 µg/mL
solubility (23 °C, water): < 30 µg/mL
solubility (70 °C, organic solvent or mixture): > 100000 µg/mL
solubility (70 °C, water): < 120 µg/mL
solubility (water): < 1000 µg/mL
Compound: O=C(O)CCCCCCCCCCC(=O)O [DDDA, dodecanedioic acid]
